Columns and labels:
Assay in all cases: relative viability (nuclei count vs DMSO), 5 days (fraction); higher = more cells survive
[1] = compound: C1=CC2=C(C=CC(=C2)C=C3C(=O)NC(=NCC4=CC=CS4)S3)N=C1 [RO-3306] + CC1(C)CCC(c2ccc(Cl)cc2)=C(CN2CCN(c3ccc(C(=O)NS(=O)(=O)c4ccc(N[C@H](CCN5CCOCC5)CSc5ccccc5)c(S(=O)(=O)C(F)(F)F)c4)cc3)CC2)C1 [Navitoclax] (partner 0.5 µM)
Method in brief: (§1)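 Lung cancer cell lines, seeded in 1536-well plates, were treated the following day by pin tool with a single drug or with five library-drug doses (not always all listed) in √10 steps on top of a fixed anchor-drug dose. Cells were fixed and nuclei stained in one step after 5 days, and nuclei were counted. Relative viability is the nuclei count for treated wells divided by that for vehicle wells, reported as medians of duplicate plates.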

[2] = compound: O=S(=O)(c1ccccc1)N(CC(F)(F)F)c1ccc(C(O)(C(F)(F)F)C(F)(F)F)cc1 + N=C(N)NC(=N)NCCc1ccccc1 [Phenformin] (partner 250 µM)
Method in brief: as §1

[3] = compound: C1=CC2=C(C=CC(=C2)C=C3C(=O)NC(=NCC4=CC=CS4)S3)N=C1 [RO-3306] + CS(=O)(=O)CCNCc1ccc(-c2ccc3ncnc(Nc4ccc(OCc5cccc(F)c5)c(Cl)c4)c3c2)o1 [Lapatinib] (partner 2 µM)
Method in brief: as §1

[4] = compound: O=S(=O)(c1ccccc1)N(CC(F)(F)F)c1ccc(C(O)(C(F)(F)F)C(F)(F)F)cc1 + COc1cc2c(Oc3ccc(NC(=O)C4(C(=O)Nc5ccc(F)cc5)CC4)cc3F)ccnc2cc1OCCCN1CCOCC1 [Foretinib] (partner 0.25 µM)
Method in brief: as §1

[5] = compound: O=S(=O)(c1ccccc1)N(CC(F)(F)F)c1ccc(C(O)(C(F)(F)F)C(F)(F)F)cc1 + CC(=O)Nc1cccc(-n2c(=O)n(C3CC3)c(=O)c3c(Nc4ccc(I)cc4F)n(C)c(=O)c(C)c32)c1 [Trametinib] (partner 0.02 µM)
Method in brief: as §1

Cell Line	relative viability ([1]; first compound 0.01 µM)	relative viability ([1]; first compound 0.03162 µM)	relative viability ([1]; first compound 0.1 µM)	relative viability ([1]; first compound 0.3162 µM)	relative viability ([1]; first compound 1 µM)	relative viability ([2]; first compound 0.8 µM)	relative viability ([2]; first compound 2.53 µM)	relative viability ([2]; first compound 8 µM)	relative viability ([3]; first compound 0.01 µM)	relative viability ([3]; first compound 0.03162 µM)	relative viability ([3]; first compound 0.1 µM)	relative viability ([3]; first compound 0.3162 µM)	relative viability ([3]; first compound 1 µM)	relative viability ([4]; first compound 0.8 µM)	relative viability ([4]; first compound 2.53 µM)	relative viability ([4]; first compound 8 µM)	relative viability ([5]; first compound 0.8 µM)	relative viability ([5]; first compound 2.53 µM)	relative viability ([5]; first compound 8 µM)
LU99A	0.916	0.708	0.866	0.747	0.803	0.878	0.762	0.875	1.2	0.971	0.915	0.789	0.914	0.785	0.773	0.725	0.521	0.541	0.464
LXF-289	0.992	0.961	0.972	0.976	0.993	0.504	0.475	0.463	0.918	0.919	0.947	0.893	0.787	0.993	0.88	0.812	0.582	0.532	0.518
NCI-H23	0.965	0.842	0.87	0.881	0.613	0.828	0.743	0.699	1	1.02	1.05	1.12	0.748	1.02	1.16	1	0.392	0.379	0.343
NCI-H322M	1.24	1.14	1.25	1.22	1.19	0.882	0.812	0.819	0.576	0.595	0.575	0.586	0.561	1.08	0.915	0.953	0.497	0.506	0.557
NCI-H460	1.26		1.26	1.35	1.22	0.613	0.469	0.451	1.64		0.958	1.18	1.25	1.14	0.889	0.778	0.198	0.109	0.147
NCI-H520	1.27	1.13	1.13	1.01	0.942	0.825	0.568	0.708	1.01	0.638	0.806	0.734	0.754	0.923	0.686	0.699	0.861	0.603	0.701
NCI-H596	0.894	0.967	0.962	0.994	0.72	0.805	0.717	0.667	0.892	0.83	1.08	1.07	1.17	0.876	0.711	0.887	0.746	0.794	0.724
NCI-H647	1.45	1.24	1.07	1.24	0.966	0.502	0.552	0.455	1.45	0.881	0.974	1.32	0.783	1.48	1.19	1.03	0.587	0.379	0.352
NCI-H727	0.45	0.395	0.433	0.471	0.455	0.568	0.378	0.469	0.869	0.647	0.789	0.845	0.972	0.83	0.846	0.867	0.358	0.368	0.375
NCI-H838	1.26	1.14	1.17	1.19	1.21	0.656	0.56	0.627	1.02	0.6	0.951	1.08	0.902	1.15	1.05	1.02	0.604	0.474	0.596
NCI-H1355	1.12	0.915	0.949	1.04	0.946	0.467	0.397	0.438	1.15	0.926	0.973	1.04	0.886	1.06	0.978	1.01	0.456	0.427	0.382
NCI-H1395	1.13	1.38	1.11	1.04	0.978	0.438	0.465	0.482	0.817	0.925	0.824	1.08	0.826	0.924	0.862	0.994	1.13	1	0.965
NCI-H1437	1.16	0.996	1.05	1.13	1.1	0.297	0.239	0.342	0.835	0.543	0.788	0.794	0.772	1.35	1.09	0.979	0.538	0.36	0.432
NCI-H1650	1.15	1.11	1.19	1.19	0.974	0.347	0.366	0.384	0.595	0.632	0.695	1.03	0.683	1.33	0.904	1.28	0.513	0.645	0.53
NCI-H1651	0.982	0.854	1.04	1.14	0.882	0.358	0.292	0.268	0.839	0.648	0.77	0.972	0.644	0.974	0.795	0.68	0.853	0.867	0.739
NCI-H1666	0.954	0.871	0.858	0.86	0.779	0.537	0.541	0.511	0.593	0.407	0.609	0.61	0.457	0.936	0.863	0.863	0.902	0.845	0.704

— the supplement of paper PMC10307832
